Literature values, collected in patent US10273264B2, “Cortistatin analogues and syntheses and uses thereof” (President and Fellows of Harvard College, priority 2015, dated 2019).

Tests used:
AML cell lines = conditions: in vitro; as described in PCT/US2014/72365
STAT1 phosphorylation = conditions: as described in PCT/US2014/72365
PMF = conditions: as described in PCT/US2014/72365
AML = conditions: in vivo; as described in PCT/US2014/72365
CDK19 = CDK19 (Homo sapiens, UniProt Q9BWU1); conditions: reported, Cee et al. and US 20120071477
CDK19, sequence (Q9BWU1 whole entry): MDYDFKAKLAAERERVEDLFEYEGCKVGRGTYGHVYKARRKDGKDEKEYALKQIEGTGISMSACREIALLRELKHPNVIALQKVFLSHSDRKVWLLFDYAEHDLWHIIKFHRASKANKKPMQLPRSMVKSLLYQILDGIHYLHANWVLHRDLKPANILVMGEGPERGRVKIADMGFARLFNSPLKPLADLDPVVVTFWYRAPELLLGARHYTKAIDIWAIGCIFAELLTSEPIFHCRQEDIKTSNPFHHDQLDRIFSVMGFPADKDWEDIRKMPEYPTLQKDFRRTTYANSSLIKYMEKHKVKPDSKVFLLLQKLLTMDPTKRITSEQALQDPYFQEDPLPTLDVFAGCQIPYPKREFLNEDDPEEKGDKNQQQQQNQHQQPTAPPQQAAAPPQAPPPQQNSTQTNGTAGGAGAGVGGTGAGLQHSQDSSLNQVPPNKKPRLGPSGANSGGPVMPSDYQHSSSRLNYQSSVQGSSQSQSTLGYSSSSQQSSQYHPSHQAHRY

[1] = test system: beta-catenin activated transcription; conditions: reporter gene assay; as described in PCT/US2014/72365
[2] = test system: Wnt/beta-catenin target genes in AML cells; conditions: as described in PCT/US2014/72365
[3] = test system: cell lines derived from patients with MPNs; conditions: as described in PCT/US2014/72365

For cortistatin A, the “inhibition of proliferation of AML cell lines” value (AML cell lines) is given as “inhibit”, the “inhibition of interferon-gamma-stimulated STAT1 phosphorylation” value (STAT1 phosphorylation) is given as “inhibits” and the “efficacy in an in vivo model of PMF” value (PMF) is given as “efficacious”. The “inhibition of AML progression” value (AML) was “inhibits”, the “binding to CDK19” value (CDK19) was “bind” and the “inhibition of beta-catenin activated transcription” value [1] was “inhibits”. The “inhibition of expression of putative Wnt/beta-catenin target genes” value [2] was “inhibits” and the “inhibition of proliferation of MPN patient-derived cell lines” value [3] was “inhibits”.
